According to patent publication US20090082456A1, “SOLUBLE EPOXIDE HYDROLASE INHIBITORS” (Arete Therapeutics, Inc., priority 2007, published 2009):

How the values were obtained:
[1] = test system: soluble epoxide hydrolase (sEH); assay: Fluorescent assay for mouse and human soluble epoxide hydrolase (CMNPC substrate); type: biochemical
Excerpt: Recombinant mouse sEH (MsEH) and human sEH (HsEH) were produced in a baculovirus expression system as previously reported. Grant et al., J. Biol. Chem., 268:17628-17633 (1993); Beetham et al., Arch. Biochem. Biophys., 305:197-201 (1993). The expressed proteins were purified from cell lysate by affinity chromatography. Wixtrom et al., Anal. Biochem., 169:71-80 (1988). Protein concentration was quantified using the Pierce BCA assay using bovine serum albumin as the calibrating standard. The preparations were at least 97% pure as judged by SDS-PAGE and scanning densitometry. They contained no detectable esterase or glutathione transferase activity which can interfere with the assay. The assay was also evaluated with similar results in crude cell lysates or homogenate of tissues. The IC50s for each inhibitor were according to the following procedure: Cyano(2-methoxynaphthalen-6-yl)methyl (3-phenyloxiran-2-yl)methyl carbonate (CMNPC; Jones P. D. et. al.; Analytical Biochemistry 2005; 343: pp. 66-75) Bis/Tris HCl 25 mM pH 7.0 containing 0.1 mg/mL of BSA (buffer A) Mother solution of enzyme in buffer A (Mouse sEH at 6 μg/mL and Human sEH at 5 μg/mL). Inhibitor dissolved in DMSO at the appropriate concentration. In a black 96 well plate, fill all the wells with 150 μL of buffer A. Add 2 μL of DMSO in well A2 and A3, and then add 2 μL of inhibitor solution in A1 and A4 through A12. Add 150 μL of buffer A in row A, then mix several time and transfer 150 μL to row B. Repeat this operation up to row H. The 150 μL removed from row H go to the trash. Add 20 μL of buffer A in column 1 and 2, then add 20 μL of enzyme solution to column 3 to 12. Incubate the plate for 5 minutes in the plate reader at 30° C. During incubation prepare the working solution of substrate by mixing 3.68 mL of buffer A (4×0.920 mL) with 266 μL (2×133 μL) of substrate solution). At t=0, add 30 μL of working substrate solution with multi-channel pipette labeled “Briggs 303” and start the reading ([S]final: 5 μM). Read with ex: 330 nm (20 nm) and em: 465 nm (20 nm) every 30 second for 10 minutes. The velocities are used to analyze and calculate the IC50s.

Compound: CS(=O)(=O)NC1CCC(NC(=O)NC23CC4CC(CC(C4)C2)C3)CC1 (stereo not shown) [Compound 5, N-(4-(3-(adamantan-1-yl)ureido)cyclohexyl)methanesulfonamide]
- % Inh ([1]; Conc 200 nM): 96%
- melting point: > 300 °C

Compound: O=C(NC1CCC(NS(=O)(=O)c2cccc(C(F)(F)F)c2)CC1)NC12CC3CC(CC(C3)C1)C2 (stereo not shown) [Compound 1, N-(4-(3-(adamantan-1-yl)ureido)cyclohexyl)-3-(trifluoromethyl)benzenesulfonamide]
- % Inh ([1]; Conc 200 nM): 98%
- melting point: 310 to 312 °C

Compound: CC(=O)NC1CCC(NC(=O)NC23CC4CC(CC(C4)C2)C3)CC1 (stereo not shown) [Compound 2, N-(4-(3-(adamantan-1-yl)ureido)cyclohexyl)acetamide]
- % Inh ([1]; Conc 1000 nM): 98%
- melting point: > 300 °C

Compound: O=C(Nc1ccc(F)cc1)NC1CCC(NS(=O)(=O)c2cccc(C(F)(F)F)c2)CC1 (stereo not shown) [Compound 3, N-(4-(3-(4-fluorophenyl)ureido)cyclohexyl)-3-(trifluoromethyl)benzenesulfonamide]
- % Inh ([1]; Conc 200 nM): 98%
- melting point: 296 to 299 °C

Compound: CS(=O)(=O)NC1CCC(NC(=O)c2ccc(F)cc2)CC1 (stereo not shown) [Compound 7, 4-fluoro-N-(4-(methylsulfonamido)cyclohexyl)benzamide]
- % Inh ([1]; Conc 2000 nM): 44%
- melting point: 269 to 270 °C

Compound: CC(=O)NC1CCC(NC(=O)Nc2ccc(C(F)(F)F)cc2)CC1 (stereo not shown) [Compound 4, N-(4-(3-(4-(trifluoromethyl)phenyl)ureido)cyclohexyl)acetamide]
- % Inh ([1]; Conc 200 nM): 93%

Compound: CS(=O)(=O)NC1CCC(NC(=O)Nc2ccc(C(F)(F)F)cc2)CC1 (stereo not shown) [Compound 6, N-(4-(3-(4-(trifluoromethyl)phenyl)ureido)cyclohexyl)methanesulfonamide]
- % Inh ([1]; Conc 200 nM): 99%
- melting point: 237 to 239 °C
